# Results: publication PMC2774722 (Clinical cancer research : an official journal of the …, 2009)
# “And” between values parts separate entries of the source, which are not always exact repeats. Identical values can stand only once. Like-named read-outs stand apart in the source and are kept apart here.
# Assays:
# Abcb1 [1] = conditions: brain concentration at 4 h / plasma AUC0-4h; oral sorafenib 40 mg/kg or sunitinib 20 mg/kg
# Abcb1 [2] = conditions: single oral dose, sorafenib 40 mg/kg or sunitinib 20 mg/kg
# ABCB1 [3] = target: T1, ABCB1 (Homo sapiens, UniProt P08183); experiment: Transcellular transport in LLC-PK1 cells expressing ABCB1; type: in vitro ADME; conditions: 10 μM, LLC-PK1 cells overexpressing ABCB1
# ABCC2 [4] = target: T2, ABCC2 (Homo sapiens, UniProt Q92887); experiment: Inhibition of ABCC2-mediated docetaxel efflux; type: cell-based; conditions: for Inhibition of docetaxel efflux: 20 μM sorafenib or sunitinib, or 50 μM MK571, 5 μM docetaxel, 4 h, cells overexpressing ABCC2
# [5] = tested on: OATP1A2, OATP1B1, OATP1B3, OCT1, OAT2, OCTN1 and OCTN2; conditions: oocytes or HEK293 cells; sorafenib 0.35-1.5 μM or sunitinib 0.15-0.45 μM, 1 h
# [6] = tested on: acute myelogenous leukemia; conditions: sorafenib with cytarabine/idarubicin, cited from earlier work
# ABCC2 [7] = target: T2, ABCC2; experiment: Vanadate sensitive ATPase assay of ABCC2 in membrane vesicles; type: biochemical; conditions: activation test, 0.14-300 μM, 10 min, concentration dependent
# ABCC4 [8] = target: T3, ABCC4 (Homo sapiens, UniProt O15439); experiment: Inhibition of ABCC4-mediated PMEA efflux in Saos-2 cells; type: cell-based; conditions: for Inhibition of PMEA efflux: 20 μM sorafenib or sunitinib, or 50 μM MK571, 4 h, cells overexpressing ABCC4
# T3 sequence (O15439 1-1325): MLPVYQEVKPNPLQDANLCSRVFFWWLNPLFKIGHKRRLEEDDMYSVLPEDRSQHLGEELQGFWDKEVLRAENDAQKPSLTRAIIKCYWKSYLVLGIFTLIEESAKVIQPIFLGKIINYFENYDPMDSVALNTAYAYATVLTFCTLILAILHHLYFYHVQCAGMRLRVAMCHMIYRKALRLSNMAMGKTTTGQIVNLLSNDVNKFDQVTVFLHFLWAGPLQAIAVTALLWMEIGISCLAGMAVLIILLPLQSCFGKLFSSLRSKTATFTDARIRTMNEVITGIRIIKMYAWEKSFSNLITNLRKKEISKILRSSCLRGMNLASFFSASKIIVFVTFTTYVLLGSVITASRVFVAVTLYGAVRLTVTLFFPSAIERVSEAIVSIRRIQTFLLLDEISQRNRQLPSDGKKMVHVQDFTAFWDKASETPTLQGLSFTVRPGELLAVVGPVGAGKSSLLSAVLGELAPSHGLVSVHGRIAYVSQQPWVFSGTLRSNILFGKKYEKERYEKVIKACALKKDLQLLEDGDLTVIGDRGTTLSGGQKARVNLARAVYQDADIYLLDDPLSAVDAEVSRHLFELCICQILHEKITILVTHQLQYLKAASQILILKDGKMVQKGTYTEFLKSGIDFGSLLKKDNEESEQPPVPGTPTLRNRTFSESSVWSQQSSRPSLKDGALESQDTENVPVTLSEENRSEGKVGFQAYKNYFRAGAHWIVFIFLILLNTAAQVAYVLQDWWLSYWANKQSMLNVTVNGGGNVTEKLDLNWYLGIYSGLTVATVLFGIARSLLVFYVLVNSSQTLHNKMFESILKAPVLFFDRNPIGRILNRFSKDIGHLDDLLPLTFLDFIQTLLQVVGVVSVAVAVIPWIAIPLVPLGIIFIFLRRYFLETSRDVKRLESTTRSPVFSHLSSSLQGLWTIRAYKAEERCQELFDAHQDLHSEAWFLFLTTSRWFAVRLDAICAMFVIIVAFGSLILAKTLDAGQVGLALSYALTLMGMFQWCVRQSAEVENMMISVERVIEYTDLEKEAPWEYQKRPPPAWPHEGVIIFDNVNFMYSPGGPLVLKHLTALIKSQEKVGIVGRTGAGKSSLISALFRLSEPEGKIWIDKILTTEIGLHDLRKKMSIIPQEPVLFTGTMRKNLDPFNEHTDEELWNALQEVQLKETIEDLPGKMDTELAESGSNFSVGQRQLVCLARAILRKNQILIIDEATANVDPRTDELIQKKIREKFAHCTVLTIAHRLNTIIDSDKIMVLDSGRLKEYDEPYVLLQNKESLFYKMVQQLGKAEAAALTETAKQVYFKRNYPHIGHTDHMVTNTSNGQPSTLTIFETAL
# ABCG2 [9] = target: ABCG2 (Homo sapiens, UniProt Q9UNQ0); conditions: 1 μM, 4 h, Saos-2 cells
# [10] = Brain penetration and brain concentration in mice; type: in vivo
# ABCC4 [11] = target: T3, ABCC4; experiment: Accumulation in Saos-2 cells overexpressing ABCC4; type: in vitro ADME; conditions: 1 μM, 4 h
# ABCC2 [12] = target: T2, ABCC2; experiment: Accumulation in MDCKII cells overexpressing ABCC2; type: in vitro ADME; conditions: 1 μM, 4 h
# ABCB1 [13] = target: T1, ABCB1; experiment: Inhibition of calcein-AM efflux in LLC-PK1 cells expressing ABCB1; type: cell-based
# [14] = ref [39], cited from earlier work
# ABCB1 or ABCC2 = conditions: mice lacking one or both transporters (ABCB1, ABCC2); ref [40]; cited from earlier work
# Abcb1 [15] = conditions: Abcb1 knockout mice; ref [6], [44]; cited from earlier work
# [16] = wild-type murine models, cited from earlier work
# Abcb1 and Abcg2 = conditions: mice lacking both Abcb1 and Abcg2; ref [6], [44]; cited from earlier work
# ABCG2 [17] = conditions: ref [38]; cited from earlier work
# ABCB1 [18] = conditions: ref [38]; cited from earlier work
# OCTN2 = target: T4, OCTN2 (Homo sapiens, UniProt O76082); experiment: Uptake in HEK293 cells overexpressing OCTN2; type: in vitro ADME; conditions: HEK293 cells expressing OCTN2, 1 h
# T4 sequence (O76082 1-557): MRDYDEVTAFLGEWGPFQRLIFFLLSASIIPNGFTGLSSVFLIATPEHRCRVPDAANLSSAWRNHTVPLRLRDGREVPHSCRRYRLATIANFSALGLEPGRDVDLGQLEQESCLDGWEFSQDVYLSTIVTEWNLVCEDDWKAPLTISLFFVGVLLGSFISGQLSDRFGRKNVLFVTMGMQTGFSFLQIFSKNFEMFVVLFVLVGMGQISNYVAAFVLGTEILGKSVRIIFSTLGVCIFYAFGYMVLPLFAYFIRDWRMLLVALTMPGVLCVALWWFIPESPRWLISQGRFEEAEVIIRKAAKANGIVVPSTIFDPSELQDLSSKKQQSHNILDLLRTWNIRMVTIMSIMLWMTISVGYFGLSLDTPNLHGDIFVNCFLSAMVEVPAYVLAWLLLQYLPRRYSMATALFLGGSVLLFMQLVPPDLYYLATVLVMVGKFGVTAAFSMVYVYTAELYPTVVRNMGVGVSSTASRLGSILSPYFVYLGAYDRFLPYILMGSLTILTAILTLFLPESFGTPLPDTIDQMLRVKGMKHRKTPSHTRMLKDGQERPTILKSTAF
# CYP3a = conditions: CYP3a-/- knockout mice; ref [43]; cited from earlier work
# Abcb1 [19] = conditions: mice lacking ABCB1; ref [42]; cited from earlier work
# [20] = 38 patients with newly diagnosed AML
# T2 sequence (Q92887 whole entry): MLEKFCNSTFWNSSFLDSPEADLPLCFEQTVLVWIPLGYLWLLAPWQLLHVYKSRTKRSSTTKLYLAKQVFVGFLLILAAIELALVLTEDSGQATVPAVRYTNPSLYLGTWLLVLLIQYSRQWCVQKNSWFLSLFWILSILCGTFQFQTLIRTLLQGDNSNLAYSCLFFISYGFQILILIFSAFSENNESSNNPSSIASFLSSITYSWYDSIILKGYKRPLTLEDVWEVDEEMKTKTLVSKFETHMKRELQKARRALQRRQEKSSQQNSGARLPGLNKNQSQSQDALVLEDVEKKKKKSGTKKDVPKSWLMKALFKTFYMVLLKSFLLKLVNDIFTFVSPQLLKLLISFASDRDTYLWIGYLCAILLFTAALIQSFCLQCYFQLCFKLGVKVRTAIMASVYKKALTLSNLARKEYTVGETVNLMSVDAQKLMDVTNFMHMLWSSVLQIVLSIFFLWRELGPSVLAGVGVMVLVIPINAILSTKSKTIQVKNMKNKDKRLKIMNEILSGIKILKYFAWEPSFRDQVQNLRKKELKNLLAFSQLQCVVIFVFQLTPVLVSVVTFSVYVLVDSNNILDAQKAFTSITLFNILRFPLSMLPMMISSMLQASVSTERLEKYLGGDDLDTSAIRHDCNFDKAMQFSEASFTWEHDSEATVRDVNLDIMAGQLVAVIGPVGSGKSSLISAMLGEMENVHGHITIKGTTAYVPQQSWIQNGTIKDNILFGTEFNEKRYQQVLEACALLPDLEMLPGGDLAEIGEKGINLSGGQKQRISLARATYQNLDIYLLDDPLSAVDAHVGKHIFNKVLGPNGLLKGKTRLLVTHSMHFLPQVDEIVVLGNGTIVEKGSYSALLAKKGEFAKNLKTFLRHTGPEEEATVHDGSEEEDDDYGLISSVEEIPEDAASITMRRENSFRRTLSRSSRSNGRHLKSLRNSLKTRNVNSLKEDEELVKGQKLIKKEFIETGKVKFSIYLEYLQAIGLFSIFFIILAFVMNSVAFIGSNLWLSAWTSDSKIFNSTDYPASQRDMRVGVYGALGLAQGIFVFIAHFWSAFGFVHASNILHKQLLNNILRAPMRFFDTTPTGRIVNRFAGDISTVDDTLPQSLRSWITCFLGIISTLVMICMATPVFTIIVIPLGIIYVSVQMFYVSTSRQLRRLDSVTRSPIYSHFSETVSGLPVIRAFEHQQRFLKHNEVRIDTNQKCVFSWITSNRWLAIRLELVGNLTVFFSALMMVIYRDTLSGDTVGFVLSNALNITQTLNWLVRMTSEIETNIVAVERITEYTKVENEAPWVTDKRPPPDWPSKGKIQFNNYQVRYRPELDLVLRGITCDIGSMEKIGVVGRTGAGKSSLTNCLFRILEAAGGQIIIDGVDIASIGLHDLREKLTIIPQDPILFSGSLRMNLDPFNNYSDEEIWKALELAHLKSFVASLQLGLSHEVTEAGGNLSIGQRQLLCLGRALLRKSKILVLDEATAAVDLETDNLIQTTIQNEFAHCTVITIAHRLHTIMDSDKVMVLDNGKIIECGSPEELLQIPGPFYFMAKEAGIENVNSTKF
# T1 sequence (P08183 whole entry): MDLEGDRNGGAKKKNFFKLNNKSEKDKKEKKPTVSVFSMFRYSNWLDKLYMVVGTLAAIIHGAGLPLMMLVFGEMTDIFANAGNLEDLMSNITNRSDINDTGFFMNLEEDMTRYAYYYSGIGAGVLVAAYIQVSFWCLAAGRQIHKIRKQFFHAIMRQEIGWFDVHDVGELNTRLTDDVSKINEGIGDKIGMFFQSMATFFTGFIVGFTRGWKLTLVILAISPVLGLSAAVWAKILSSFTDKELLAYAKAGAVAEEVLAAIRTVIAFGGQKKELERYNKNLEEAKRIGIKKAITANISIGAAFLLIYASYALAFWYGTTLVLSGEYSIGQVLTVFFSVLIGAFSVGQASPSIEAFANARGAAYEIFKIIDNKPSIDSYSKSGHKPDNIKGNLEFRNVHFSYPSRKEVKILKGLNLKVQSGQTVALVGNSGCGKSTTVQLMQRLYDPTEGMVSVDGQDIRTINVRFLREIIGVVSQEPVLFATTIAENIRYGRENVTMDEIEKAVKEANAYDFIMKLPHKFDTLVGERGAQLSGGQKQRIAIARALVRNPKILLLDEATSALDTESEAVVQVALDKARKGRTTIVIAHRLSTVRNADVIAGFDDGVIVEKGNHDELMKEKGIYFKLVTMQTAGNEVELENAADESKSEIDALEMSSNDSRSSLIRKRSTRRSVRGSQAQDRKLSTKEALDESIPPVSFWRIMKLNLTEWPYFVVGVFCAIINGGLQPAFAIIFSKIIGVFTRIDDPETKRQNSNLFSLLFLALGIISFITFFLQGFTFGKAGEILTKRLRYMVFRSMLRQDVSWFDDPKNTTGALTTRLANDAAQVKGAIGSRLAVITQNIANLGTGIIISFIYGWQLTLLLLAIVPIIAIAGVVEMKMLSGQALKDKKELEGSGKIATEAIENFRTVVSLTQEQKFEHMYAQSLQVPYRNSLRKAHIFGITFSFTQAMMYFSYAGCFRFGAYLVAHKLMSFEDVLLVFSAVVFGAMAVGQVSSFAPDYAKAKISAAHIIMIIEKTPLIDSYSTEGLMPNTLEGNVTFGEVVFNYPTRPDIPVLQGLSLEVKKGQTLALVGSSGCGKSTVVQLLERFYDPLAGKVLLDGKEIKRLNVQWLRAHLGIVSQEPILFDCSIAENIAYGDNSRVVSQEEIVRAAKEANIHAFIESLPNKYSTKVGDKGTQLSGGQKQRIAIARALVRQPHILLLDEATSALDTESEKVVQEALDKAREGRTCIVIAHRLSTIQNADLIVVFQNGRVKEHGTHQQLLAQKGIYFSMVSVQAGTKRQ
# ABCG2 (Homo sapiens, UniProt Q9UNQ0), sequence (Q9UNQ0 whole entry): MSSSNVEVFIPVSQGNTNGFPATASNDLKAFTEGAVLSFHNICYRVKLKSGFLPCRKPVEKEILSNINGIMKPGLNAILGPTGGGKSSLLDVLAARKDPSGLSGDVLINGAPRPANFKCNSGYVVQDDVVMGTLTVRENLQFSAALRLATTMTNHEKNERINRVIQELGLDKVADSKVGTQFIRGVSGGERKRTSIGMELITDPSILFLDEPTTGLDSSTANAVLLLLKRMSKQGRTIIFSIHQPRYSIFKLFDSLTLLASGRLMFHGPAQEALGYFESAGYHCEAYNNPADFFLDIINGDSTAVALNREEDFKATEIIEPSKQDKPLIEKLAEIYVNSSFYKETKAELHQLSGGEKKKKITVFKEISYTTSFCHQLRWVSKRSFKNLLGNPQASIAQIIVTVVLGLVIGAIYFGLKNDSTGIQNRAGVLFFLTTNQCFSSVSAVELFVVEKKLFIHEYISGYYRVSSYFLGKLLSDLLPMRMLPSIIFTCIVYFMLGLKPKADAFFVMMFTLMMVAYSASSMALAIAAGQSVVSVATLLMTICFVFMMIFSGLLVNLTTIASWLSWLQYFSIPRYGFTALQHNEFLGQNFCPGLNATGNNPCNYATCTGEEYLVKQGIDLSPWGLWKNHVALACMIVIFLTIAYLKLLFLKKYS
smiles,measurement,setting,value
CNC(=O)c1cc(Oc2ccc(NC(=O)Nc3ccc(Cl)c(C(F)(F)F)c3)cc2)ccn1 [sorafenib],Increase in brain penetration in knockout animals versus controls,Abcb1 [1],1.9 fold
same,"Plasma AUC0-4h, wild type versus Abcb1 knockout mice",Abcb1 [2],not significantly different
same,Transport by ABCB1,ABCB1 [3],not transported
same,inhibition at 20 µM,ABCC2 [4]; read-out: Inhibition of docetaxel efflux,~50%
same,Transport (uptake) by solute carriers compared to control,[5],none of the transporters tested facilitated
same,Overall response rate,[6]; [20],83%
same,Patients achieving a complete response,[6]; [20],70%
same,Probability of survival,[6]; at 9 months follow-up,82%
same,Remission duration,[6]; at 9 months follow-up,72%
same,Effect on baseline ATPase activity of ABCC2,ABCC2 [7],inhibited
same,inhibition at 20 µM,"ABCC4 [8]; SAOS-2, read-out: Inhibition of PMEA efflux",~70%
same,Transport by ABCG2,ABCG2 [9],not transported
same,concentration at 4 h,"[10]; FVB, mouse, brain, po, 40 mg/kg",~300 ng/mL and 645 nM
same,Brain penetration,"[10]; wild-type mice, brain concentration at 4 h / plasma AUC0-4h, oral sorafenib 40 mg/kg or sunitinib 20 mg/kg",3%
same,Transport by ABCC4,ABCC4 [11],not transported
same,Transport by ABCC2,ABCC2 [12],not transported
same,IC50,ABCB1 [13],16.6 µM
CCc1c2c(nc3ccc(OC(=O)N4CCC(N5CCCCC5)CC4)cc13)-c1cc3c(c(=O)n1C2)COC(=O)[C@]3(O)CC [irinotecan],Change in plasma exposure when co-administered with sorafenib,[14],minimal to no increases
CCc1c2c(nc3ccc(O)cc13)-c1cc3c(c(=O)n1C2)COC(=O)[C@]3(O)CC [SN-38],Change in plasma exposure when co-administered with sorafenib,[14],minimal to no increases
CN(C)C(=O)CCSC(SCCC(=O)O)c1cccc(/C=C/c2ccc3ccc(Cl)cc3n2)c1 (stereo not drawn) [MK571],Inhibition of docetaxel efflux,ABCC2 [4],approximately 90%
same,Inhibition of PMEA efflux,ABCC4 [8],~100%
COc1cccc2c1C(=O)c1c(O)c3c(c(O)c1C2=O)C[C@@](O)(C(=O)CO)C[C@@H]3O[C@H]1C[C@H](N)[C@H](O)[C@H](C)O1 [doxorubicin],Increase in plasma exposure in combination with sorafenib,[14]; phase I trial,20-30%
same,Plasma exposure compared to wild-type mice,ABCB1 or ABCC2,unaltered
Cc1ccc(NC(=O)c2ccc(CN3CCN(C)CC3)cc2)cc1Nc1nccc(-c2cccnc2)n1 [imatinib],Increase in brain penetration compared to wild-type mice,Abcb1 [15],3.6 fold
same,Brain penetration,"[16]; ref [6], [44]",2-10%
same,Increase in brain penetration compared to wild-type mice,Abcb1 and Abcg2,12.6 fold
CCN(CC)CCNC(=O)c1c(C)[nH]c(/C=C2\C(=O)Nc3ccc(F)cc32)c1C [sunitinib],Reversal of topotecan resistance mediated by ABCG2,ABCG2 [17],completely reverse
same,Increase in brain penetration in knockout animals versus controls,Abcb1 [1],2.9 fold
same,"Plasma AUC0-4h, wild type versus Abcb1 knockout mice",Abcb1 [2],not significantly different
same,Reversal of ABCB1-mediated resistance to romidepsin,ABCB1 [18],partially reverse
same,Transport by ABCB1,ABCB1 [3],substantially reduced
same,Inhibition of docetaxel efflux,ABCC2 [4],~80%
same,Transport (uptake) by solute carriers compared to control,[5],none of the transporters tested facilitated
same,Inhibition of PMEA efflux,ABCC4 [8],~80%
same,Transport over control by OCTN2,OCTN2,130%
same,Transport by ABCG2,ABCG2 [9],not transported
Cc1nc(Nc2ncc(C(=O)Nc3c(C)cccc3Cl)s2)cc(N2CCN(CCO)CC2)n1 [dasatinib],Brain penetration,[16]; ref [45],3-8%
CC(=O)O[C@@]12CO[C@@H]1C[C@H](O)[C@@]1(C)C(=O)[C@H](O)C3=C(C)[C@@H](OC(=O)[C@H](O)[C@@H](NC(=O)OC(C)(C)C)c4ccccc4)C[C@@](O)([C@@H](OC(=O)c4ccccc4)[C@H]21)C3(C)C [docetaxel],Exposure compared to wild-type counterparts,CYP3a,significanty increased
same,Plasma exposure compared to wild-type mice,Abcb1 [19],unchanged
